Columns and labels:
Assay in all cases: Test C preemergence
Format in all cases: in vivo
[1] = system: Nightshade; conditions: Rate 500 g/ha, visual evaluation after 12 to 14 days
[2] = system: pigweed (Amaranthus retroflexus); conditions: preemergence; for Plant response rating, Pigweed: scale 0 to 100, 0 no effect, 100 complete control
Source text: (§1) Seeds of plant species selected from bermudagrass (Cynodon dactylon), Surinam grass (Brachiaria decumbens), cocklebur (Xanthium strumarium), corn (Zea mays), crabgrass (Digitaria sanguinalis), woolly cupgrass (Eriochloa villosa), giant foxtail (Setaria faberii), goosegrass (Eleusine indica), johnsongrass (Sorghum halepense), kochia (Kochia scoparia), lambsquarters (Chenopodium album), morningglory (Ipomoea hederacea), yellow nutsedge (Cyperus esculentus), pigweed (Amaranthus retroflexus), common ragweed (Ambrosia elatior), soybean (Glycine max) and velvetleaf (Abutilon theophrasti) were planted and treated preemergence with test chemicals formulated in a non-phytotoxic solvent mixture which included a surfactant.
(§2) At the same time, plants selected from these crop and weed species and also winter barley (Hordeum vulgare), blackgrass (Alopecurus myosuroides), canary grass (Phalaris minor), chickweed (Stellaria media), downy brome (Bromus tectorum), green foxtail (Setaria viridis), Italian ryegrass (Lolium multiflorum), wheat (Triticum aestivum), wild oat (Avena fatua) and windgrass (Apera spica-venti) were treated with postemergence applications of some of the test chemicals formulated in the same manner. Plants ranged in height from 2 to 18 cm (1- to 4-leaf stage) for postemergence treatments. Plant species in the flooded paddy test consisted of rice (Oryza saliva), smallflower flatsedge (Cyperus difformis), duck salad (Heteranthera limosa) and barnyardgrass (Echinochloa crus-galli) grown to the 2-leaf stage for testing. Treated plants and controls were maintained in a greenhouse for 12 to 14 days, after which time all species were compared to controls and visually evaluated. Plant response ratings, summarized in Table C, are based on a scale of 0 to 100 where 0 is no effect and 100 is complete control. A dash (-) response means no test result.

[3] = system: yellow nutsedge (Cyperus esculentus); conditions: for Plant response rating, Nutsedge: scale 0 to 100, 0 no effect, 100 complete control
Source text: as §1, §2

[4] = system: bermudagrass (Cynodon dactylon); conditions: for Plant response rating, Bermudagrass: scale 0 to 100, 0 no effect, 100 complete control; for Plant response rating (0 to 100 where 0 is no effect and 100 is complete control), Bermudagrass: visual evaluation after 12 to 14 days
Source text: as §1, §2

[5] = system: woolly cupgrass (Eriochloa villosa); conditions: for Plant response rating, Cupgrass, Woolly: scale 0 to 100, 0 no effect, 100 complete control; for Plant response rating (0 to 100), Cupgrass, Woolly: visual evaluation after 12 to 14 days
Source text: as §1, §2

[6] = system: crabgrass (Digitaria sanguinalis); conditions: for Plant response rating, Crabgrass: scale 0 to 100, 0 no effect, 100 complete control; for Plant response rating (0 to 100), Crabgrass: visual evaluation after 12 to 14 days
Source text: as §1, §2

[7] = system: johnsongrass (Sorghum halepense); conditions: for Plant response rating, Johnsongrass: scale 0 to 100, 0 no effect, 100 complete control; for Plant response rating (0 to 100), Johnsongrass: visual evaluation after 12 to 14 days
Source text: as §1, §2

[8] = system: common ragweed (Ambrosia elatior); conditions: preemergence; for Plant response rating, Ragweed, Common: scale 0 to 100, 0 no effect, 100 complete control
Source text: as §1, §2

[9] = system: goosegrass (Eleusine indica); conditions: for Plant response rating, Goosegrass: scale 0 to 100, 0 no effect, 100 complete control; for Plant response rating (0 to 100), Goosegrass: visual evaluation after 12 to 14 days
Source text: as §1, §2

[10] = system: Surinam grass (Brachiaria decumbens); conditions: for Plant response rating, Surinam grass: scale 0 to 100, 0 no effect, 100 complete control; for Plant response rating (0 to 100), Surinam grass: visual evaluation after 12 to 14 days
Source text: as §1, §2

[11] = system: cocklebur (Xanthium strumarium); conditions: for Plant response rating, Cocklebur: scale 0 to 100, 0 no effect, 100 complete control; for Plant response rating (0 to 100), Cocklebur: visual evaluation after 12 to 14 days
Source text: as §1, §2

[12] = system: velvetleaf (Abutilon theophrasti); conditions: preemergence; for Plant response rating, Velvetleaf: scale 0 to 100, 0 no effect, 100 complete control
Source text: as §1, §2

[13] = system: kochia (Kochia scoparia); conditions: for Plant response rating, Kochia: scale 0 to 100, 0 no effect, 100 complete control; for Plant response rating (0 to 100), Kochia: visual evaluation after 12 to 14 days
Source text: as §1, §2

[14] = system: giant foxtail (Setaria faberii); conditions: for Plant response rating, Foxtail, Giant: scale 0 to 100, 0 no effect, 100 complete control; for Plant response rating (0 to 100), Foxtail, Giant: visual evaluation after 12 to 14 days
Source text: as §1, §2

[15] = system: soybean (Glycine max); conditions: preemergence; for Plant response rating, Soybean: scale 0 to 100, 0 no effect, 100 complete control
Source text: as §1, §2

[16] = system: morningglory (Ipomoea hederacea); conditions: for Plant response rating, Morningglory: scale 0 to 100, 0 no effect, 100 complete control
Source text: as §1, §2

[17] = system: Nightshade; conditions: scale 0 to 100, 0 no effect, 100 complete control
Source text: as §1, §2

[18] = system: corn (Zea mays); conditions: for Plant response rating, Corn: scale 0 to 100, 0 no effect, 100 complete control; for Plant response rating (0 to 100), Corn: visual evaluation after 12 to 14 days
Source text: as §1, §2

[19] = Rate 500 g/ha, visual evaluation after 12 to 14 days
[20] = preemergence, Rate 500 g/ha, visual evaluation after 12 to 14 days

## COc1cc(OC)cc(N2CCC(n3ccc(C(C)(C)C)n3)C2=O)c1 (stereo not shown) [Compound 71]
[1]
  Plant response rating (0 to 100), Nightshade: 30
[2]; [19]
  Plant response rating (0 to 100), Pigweed: 100
[2]; Rate 125 g/ha
  Plant response rating, Pigweed: 0
[2]; Rate 250 g/ha
  Plant response rating, Pigweed: 100
[3]; Rate 62 g/ha
  Plant response rating, Nutsedge: 0
[3]; [20]
  Plant response rating (0 to 100), Nutsedge: 70
[3]; preemergence, Rate 125 g/ha
  Plant response rating, Nutsedge: 30
[3]; preemergence, Rate 250 g/ha
  Plant response rating, Nutsedge: 70
[4]; Rate 62 g/ha
  Plant response rating, Bermudagrass: 30
[4]; preemergence, Rate 250 g/ha
  Plant response rating (0 to 100 where 0 is no effect and 100 is complete control), Bermudagrass: 100
[4]; preemergence, Rate 500 g/ha
  Plant response rating (0 to 100 where 0 is no effect and 100 is complete control), Bermudagrass: 100
[4]; preemergence, Rate 125 g/ha
  Plant response rating, Bermudagrass: 90
[5]; Rate 62 g/ha
  Plant response rating, Cupgrass, Woolly: 0
[5]; preemergence, Rate 250 g/ha
  Plant response rating (0 to 100), Cupgrass, Woolly: 100
[5]; preemergence, Rate 500 g/ha
  Plant response rating (0 to 100), Cupgrass, Woolly: 100
[5]; preemergence, Rate 125 g/ha
  Plant response rating, Cupgrass, Woolly: 80
[6]; Rate 62 g/ha
  Plant response rating, Crabgrass: 40
[6]; preemergence, Rate 250 g/ha
  Plant response rating (0 to 100), Crabgrass: 100
[6]; preemergence, Rate 500 g/ha
  Plant response rating (0 to 100), Crabgrass: 100
[6]; preemergence, Rate 125 g/ha
  Plant response rating, Crabgrass: 100
[7]; Rate 62 g/ha
  Plant response rating, Johnsongrass: 0
[7]; preemergence, Rate 250 g/ha
  Plant response rating (0 to 100), Johnsongrass: 0
[7]; preemergence, Rate 500 g/ha
  Plant response rating (0 to 100), Johnsongrass: 40
[7]; preemergence, Rate 125 g/ha
  Plant response rating, Johnsongrass: 0
[8]; [19]
  Plant response rating (0 to 100), Ragweed, Common: 30
[8]; Rate 125 g/ha
  Plant response rating, Ragweed, Common: 0
[8]; Rate 250 g/ha
  Plant response rating, Ragweed, Common: 0
[9]; Rate 62 g/ha
  Plant response rating, Goosegrass: 30
[9]; preemergence, Rate 250 g/ha
  Plant response rating (0 to 100), Goosegrass: 100
[9]; preemergence, Rate 500 g/ha
  Plant response rating (0 to 100), Goosegrass: 100
[9]; preemergence, Rate 125 g/ha
  Plant response rating, Goosegrass: 90
[10]; Rate 62 g/ha
  Plant response rating, Surinam grass: 30
[10]; preemergence, Rate 250 g/ha
  Plant response rating (0 to 100), Surinam grass: 50
[10]; preemergence, Rate 500 g/ha
  Plant response rating (0 to 100), Surinam grass: 90
[10]; preemergence, Rate 125 g/ha
  Plant response rating, Surinam grass: 30
[11]; Rate 62 g/ha
  Plant response rating, Cocklebur: 0
[11]; preemergence, Rate 250 g/ha
  Plant response rating (0 to 100), Cocklebur: 30
[11]; preemergence, Rate 500 g/ha
  Plant response rating (0 to 100), Cocklebur: 30
[11]; preemergence, Rate 125 g/ha
  Plant response rating, Cocklebur: 0
[12]; [19]
  Plant response rating (0 to 100), Velvetleaf: 0
[12]; Rate 125 g/ha
  Plant response rating, Velvetleaf: 0
[12]; Rate 250 g/ha
  Plant response rating, Velvetleaf: 0
[13]; Rate 62 g/ha
  Plant response rating, Kochia: 80
[13]; preemergence, Rate 250 g/ha
  Plant response rating (0 to 100), Kochia: 100
[13]; preemergence, Rate 500 g/ha
  Plant response rating (0 to 100), Kochia: 100
[13]; preemergence, Rate 125 g/ha
  Plant response rating, Kochia: 90
[14]; Rate 62 g/ha
  Plant response rating, Foxtail, Giant: 0
[14]; preemergence, Rate 250 g/ha
  Plant response rating (0 to 100), Foxtail, Giant: 0
[14]; preemergence, Rate 500 g/ha
  Plant response rating (0 to 100), Foxtail, Giant: 100
[14]; preemergence, Rate 125 g/ha
  Plant response rating, Foxtail, Giant: 90
[15]; [19]
  Plant response rating (0 to 100), Soybean: 0
[15]; Rate 125 g/ha
  Plant response rating, Soybean: 0
[15]; Rate 250 g/ha
  Plant response rating, Soybean: 0
[16]; Rate 62 g/ha
  Plant response rating, Morningglory: 0
[16]; [20]
  Plant response rating (0 to 100), Morningglory: 0
[16]; preemergence, Rate 125 g/ha
  Plant response rating, Morningglory: 0
[16]; preemergence, Rate 250 g/ha
  Plant response rating, Morningglory: 0
[17]; Rate 62 g/ha
  Plant response rating, Nightshade: 0
[17]; Rate 125 g/ha
  Plant response rating, Nightshade: 20
[17]; Rate 250 g/ha
  Plant response rating, Nightshade: 30
[18]; Rate 62 g/ha
  Plant response rating, Corn: 0
[18]; preemergence, Rate 250 g/ha
  Plant response rating (0 to 100), Corn: 0
[18]; preemergence, Rate 500 g/ha
  Plant response rating (0 to 100), Corn: 30
[18]; preemergence, Rate 125 g/ha
  Plant response rating, Corn: 0
